ChEMBL document CHEMBL4507284, “Data for DCP probe BI-1230” (2021)

What was measured:
[1] = tested on: Tyrosine-protein kinase ABL1 (Homo sapiens), P00519 [Q252H]; details: Compound concentration 1000.0 nM
[2] = tested on: Tyrosine-protein kinase ABL1 (Homo sapiens), P00519 [Y253F]; details: Compound concentration 1000.0 nM
[3] = molecular target: Activin receptor type-1B (Homo sapiens) (UniProt P36896); details: Compound concentration 1000.0 nM
[4] = molecular target: ALK tyrosine kinase receptor (Homo sapiens) (UniProt Q9UM73); details: Compound concentration 1000.0 nM
[5] = molecular target: Bone morphogenetic protein receptor type-1A (Homo sapiens) (UniProt P36894); details: Compound concentration 1000.0 nM
[6] = molecular target: Cytoplasmic tyrosine-protein kinase BMX (Homo sapiens) (UniProt P51813); details: Compound concentration 1000.0 nM
[7] = molecular target: Calcium/calmodulin-dependent protein kinase type II subunit alpha (Homo sapiens) (UniProt Q9UQM7); details: Compound concentration 1000.0 nM
[8] = molecular target: Casein kinase II subunit alpha (Homo sapiens) (UniProt P68400); details: Compound concentration 1000.0 nM
[9] = molecular target: Myotonin-protein kinase (Homo sapiens) (UniProt Q09013); details: Compound concentration 1000.0 nM
[10] = molecular target: Serine/threonine-protein kinase 17B (Homo sapiens) (UniProt O94768); details: Compound concentration 1000.0 nM
[11] = molecular target: Dual specificity tyrosine-phosphorylation-regulated kinase 1A (Homo sapiens) (UniProt Q13627); details: Compound concentration 1000.0 nM
[12] = tested on: Epidermal growth factor receptor (Homo sapiens), P00533 [UNDEFINED MUTATION]; details: Compound concentration 1000.0 nM
[13] = tested on: Epidermal growth factor receptor (Homo sapiens), P00533 [L861Q]; details: Compound concentration 1000.0 nM
[14] = molecular target: Ephrin type-A receptor 4 (Homo sapiens) (UniProt P54764); details: Compound concentration 1000.0 nM
[15] = tested on: Receptor-type tyrosine-protein kinase FLT3 (Homo sapiens), P36888 [D835V]; details: Compound concentration 1000.0 nM
[16] = molecular target: Receptor-type tyrosine-protein kinase FLT3 (Homo sapiens) (UniProt P36888); details: Compound concentration 1000.0 nM
[17] = molecular target: G protein-coupled receptor kinase 4 (Homo sapiens) (UniProt P32298); details: Compound concentration 1000.0 nM
[18] = molecular target: Interleukin-1 receptor-associated kinase 3 (Homo sapiens) (UniProt Q9Y616); details: Compound concentration 1000.0 nM
[19] = molecular target: Mitogen-activated protein kinase 8 (Homo sapiens) (UniProt P45983); details: Compound concentration 1000.0 nM
[20] = molecular target: LIM domain kinase 2 (Homo sapiens) (UniProt P53671); details: Compound concentration 1000.0 nM
[21] = molecular target: Dual specificity mitogen-activated protein kinase kinase 5 (Homo sapiens) (UniProt Q13163); details: Compound concentration 1000.0 nM
[22] = molecular target: Maternal embryonic leucine zipper kinase (Homo sapiens) (UniProt Q14680); details: Compound concentration 1000.0 nM
[23] = molecular target: Mitogen-activated protein kinase kinase kinase 11 (Homo sapiens) (UniProt Q16584); details: Compound concentration 1000.0 nM
[24] = molecular target: Serine/threonine-protein kinase Nek3 (Homo sapiens) (UniProt P51956); details: Compound concentration 1000.0 nM
[25] = molecular target: Serine/threonine-protein kinase Nek5 (Homo sapiens) (UniProt Q6P3R8); details: Compound concentration 1000.0 nM
[26] = molecular target: Serine/threonine-protein kinase NIM1 (Homo sapiens) (UniProt Q8IY84); details: Compound concentration 1000.0 nM
[27] = molecular target: Phosphorylase b kinase gamma catalytic chain, skeletal muscle/heart isoform (Homo sapiens) (UniProt Q16816); details: Compound concentration 1000.0 nM
[28] = tested on: Phosphatidylinositol 4,5-bisphosphate 3-kinase catalytic subunit alpha isoform (Homo sapiens), P42336 [I800L]; details: Compound concentration 1000.0 nM
[29] = molecular target: cAMP-dependent protein kinase catalytic subunit PRKX (Homo sapiens) (UniProt P51817); details: Compound concentration 1000.0 nM
[30] = molecular target: RAF proto-oncogene serine/threonine-protein kinase (Homo sapiens) (UniProt P04049); details: Compound concentration 1000.0 nM
[31] = molecular target: Serine/threonine-protein kinase RIO2 (Homo sapiens) (UniProt Q9BVS4); details: Compound concentration 1000.0 nM
[32] = molecular target: Receptor-interacting serine/threonine-protein kinase 1 (Homo sapiens) (UniProt Q13546); details: Compound concentration 1000.0 nM
[33] = molecular target: Ribosomal protein S6 kinase beta-1 (Homo sapiens) (UniProt P23443); details: Compound concentration 1000.0 nM
[34] = molecular target: Serine/threonine-protein kinase SBK1 (Homo sapiens) (UniProt Q52WX2); details: Compound concentration 1000.0 nM
[35] = molecular target: Serine/threonine-protein kinase Sgk1 (Homo sapiens) (UniProt O00141); details: Compound concentration 1000.0 nM
[36] = molecular target: Serine/threonine-protein kinase Sgk3 (Homo sapiens) (UniProt Q96BR1); details: Compound concentration 1000.0 nM
[37] = molecular target: NUAK family SNF1-like kinase 2 (Homo sapiens) (UniProt Q9H093); details: Compound concentration 1000.0 nM
[38] = molecular target: Tyrosine-protein kinase Srms (Homo sapiens) (UniProt Q9H3Y6); details: Compound concentration 1000.0 nM
[39] = molecular target: Dual specificity testis-specific protein kinase 1 (Homo sapiens) (UniProt Q15569); details: Compound concentration 1000.0 nM
[40] = molecular target: Non-receptor tyrosine-protein kinase TNK1 (Homo sapiens) (UniProt Q13470); details: Compound concentration 1000.0 nM
[41] = molecular target: High affinity nerve growth factor receptor (Homo sapiens) (UniProt P04629); details: Compound concentration 1000.0 nM
[42] = molecular target: Serine/threonine-protein kinase ULK2 (Homo sapiens) (UniProt Q8IYT8); details: Compound concentration 1000.0 nM
[43] = molecular target: Vascular endothelial growth factor receptor 2 (Homo sapiens) (UniProt P35968); details: Compound concentration 1000.0 nM
[44] = molecular target: 5-hydroxytryptamine receptor 1D (Homo sapiens) (UniProt P28221); details: Compound concentration 10.0 uM
[45] = molecular target: Histamine H1 receptor (Homo sapiens) (UniProt P35367); details: Compound concentration 10.0 uM

Chain of Phosphatidylinositol 4,5-bisphosphate 3-kinase catalytic subunit alpha isoform (Homo sapiens), P42336 [I800L] (P42336 whole entry I800L, canonical isoform): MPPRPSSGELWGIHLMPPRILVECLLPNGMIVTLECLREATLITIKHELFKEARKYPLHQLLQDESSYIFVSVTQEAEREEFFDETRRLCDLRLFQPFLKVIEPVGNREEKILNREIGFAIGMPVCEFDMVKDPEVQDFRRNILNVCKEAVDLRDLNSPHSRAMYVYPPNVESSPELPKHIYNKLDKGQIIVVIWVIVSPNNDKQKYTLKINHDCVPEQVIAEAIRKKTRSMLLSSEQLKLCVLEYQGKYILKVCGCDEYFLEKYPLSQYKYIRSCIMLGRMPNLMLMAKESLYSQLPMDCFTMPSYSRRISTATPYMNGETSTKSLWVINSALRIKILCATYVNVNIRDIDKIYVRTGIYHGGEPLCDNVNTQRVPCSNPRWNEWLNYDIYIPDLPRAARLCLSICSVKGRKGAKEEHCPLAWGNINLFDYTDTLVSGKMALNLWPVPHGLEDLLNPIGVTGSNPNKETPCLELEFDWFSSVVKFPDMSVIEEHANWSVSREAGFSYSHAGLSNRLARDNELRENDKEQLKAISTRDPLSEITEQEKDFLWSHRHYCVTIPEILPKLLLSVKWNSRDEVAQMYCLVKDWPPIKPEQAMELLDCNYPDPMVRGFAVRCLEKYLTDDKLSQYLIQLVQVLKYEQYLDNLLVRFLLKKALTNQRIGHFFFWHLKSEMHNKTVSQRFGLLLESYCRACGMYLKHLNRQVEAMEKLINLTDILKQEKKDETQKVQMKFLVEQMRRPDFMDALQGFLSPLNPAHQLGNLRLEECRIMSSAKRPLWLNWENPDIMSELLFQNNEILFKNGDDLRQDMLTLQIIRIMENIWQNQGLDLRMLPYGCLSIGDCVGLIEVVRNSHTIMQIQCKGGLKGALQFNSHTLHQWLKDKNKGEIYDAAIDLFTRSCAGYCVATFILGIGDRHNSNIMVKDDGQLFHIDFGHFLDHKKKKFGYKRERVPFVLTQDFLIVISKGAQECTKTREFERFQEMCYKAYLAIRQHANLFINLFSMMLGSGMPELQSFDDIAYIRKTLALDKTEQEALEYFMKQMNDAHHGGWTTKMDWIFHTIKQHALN
Chain of Calcium/calmodulin-dependent protein kinase type II subunit alpha (Homo sapiens) (Q9UQM7 whole entry): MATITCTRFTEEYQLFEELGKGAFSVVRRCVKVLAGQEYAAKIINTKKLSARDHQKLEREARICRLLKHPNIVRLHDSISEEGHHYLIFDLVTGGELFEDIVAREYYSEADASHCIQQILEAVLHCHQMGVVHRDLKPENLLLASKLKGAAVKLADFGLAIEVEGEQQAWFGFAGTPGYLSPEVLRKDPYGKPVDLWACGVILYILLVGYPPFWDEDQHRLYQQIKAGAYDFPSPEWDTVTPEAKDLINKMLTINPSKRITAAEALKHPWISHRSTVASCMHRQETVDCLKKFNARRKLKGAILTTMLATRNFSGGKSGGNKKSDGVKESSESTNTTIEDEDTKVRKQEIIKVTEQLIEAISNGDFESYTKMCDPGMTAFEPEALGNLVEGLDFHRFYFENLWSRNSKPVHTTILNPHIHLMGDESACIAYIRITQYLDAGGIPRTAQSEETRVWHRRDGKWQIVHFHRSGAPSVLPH
Chain of Serine/threonine-protein kinase Sgk1 (Homo sapiens) (O00141 whole entry): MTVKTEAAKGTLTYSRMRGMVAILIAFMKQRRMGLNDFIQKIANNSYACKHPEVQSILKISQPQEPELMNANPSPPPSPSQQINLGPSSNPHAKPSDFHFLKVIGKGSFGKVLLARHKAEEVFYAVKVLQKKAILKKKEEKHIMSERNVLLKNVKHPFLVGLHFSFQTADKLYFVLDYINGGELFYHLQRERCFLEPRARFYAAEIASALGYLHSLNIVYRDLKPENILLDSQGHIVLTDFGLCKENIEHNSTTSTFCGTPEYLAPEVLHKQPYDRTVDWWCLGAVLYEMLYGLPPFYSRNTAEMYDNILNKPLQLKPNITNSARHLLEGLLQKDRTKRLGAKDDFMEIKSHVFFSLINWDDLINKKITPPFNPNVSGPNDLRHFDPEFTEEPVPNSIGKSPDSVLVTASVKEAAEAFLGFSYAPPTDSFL
Chain of Ribosomal protein S6 kinase beta-1 (Homo sapiens) (P23443 whole entry, looked up): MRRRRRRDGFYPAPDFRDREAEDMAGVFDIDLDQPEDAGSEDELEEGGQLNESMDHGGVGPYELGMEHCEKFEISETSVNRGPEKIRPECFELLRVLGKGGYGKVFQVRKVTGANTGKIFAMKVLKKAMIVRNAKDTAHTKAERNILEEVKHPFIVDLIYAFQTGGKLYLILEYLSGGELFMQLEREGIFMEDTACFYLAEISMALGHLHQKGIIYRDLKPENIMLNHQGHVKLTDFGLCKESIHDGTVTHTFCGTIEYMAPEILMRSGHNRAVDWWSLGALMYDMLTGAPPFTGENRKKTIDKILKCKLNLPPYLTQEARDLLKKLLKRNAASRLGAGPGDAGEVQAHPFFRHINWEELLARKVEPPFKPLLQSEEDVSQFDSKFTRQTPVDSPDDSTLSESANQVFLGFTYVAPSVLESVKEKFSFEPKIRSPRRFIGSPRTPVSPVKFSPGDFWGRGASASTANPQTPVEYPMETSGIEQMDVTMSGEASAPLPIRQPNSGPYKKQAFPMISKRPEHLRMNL
Chain of Mitogen-activated protein kinase kinase kinase 11 (Homo sapiens) (Q16584 whole entry, looked up): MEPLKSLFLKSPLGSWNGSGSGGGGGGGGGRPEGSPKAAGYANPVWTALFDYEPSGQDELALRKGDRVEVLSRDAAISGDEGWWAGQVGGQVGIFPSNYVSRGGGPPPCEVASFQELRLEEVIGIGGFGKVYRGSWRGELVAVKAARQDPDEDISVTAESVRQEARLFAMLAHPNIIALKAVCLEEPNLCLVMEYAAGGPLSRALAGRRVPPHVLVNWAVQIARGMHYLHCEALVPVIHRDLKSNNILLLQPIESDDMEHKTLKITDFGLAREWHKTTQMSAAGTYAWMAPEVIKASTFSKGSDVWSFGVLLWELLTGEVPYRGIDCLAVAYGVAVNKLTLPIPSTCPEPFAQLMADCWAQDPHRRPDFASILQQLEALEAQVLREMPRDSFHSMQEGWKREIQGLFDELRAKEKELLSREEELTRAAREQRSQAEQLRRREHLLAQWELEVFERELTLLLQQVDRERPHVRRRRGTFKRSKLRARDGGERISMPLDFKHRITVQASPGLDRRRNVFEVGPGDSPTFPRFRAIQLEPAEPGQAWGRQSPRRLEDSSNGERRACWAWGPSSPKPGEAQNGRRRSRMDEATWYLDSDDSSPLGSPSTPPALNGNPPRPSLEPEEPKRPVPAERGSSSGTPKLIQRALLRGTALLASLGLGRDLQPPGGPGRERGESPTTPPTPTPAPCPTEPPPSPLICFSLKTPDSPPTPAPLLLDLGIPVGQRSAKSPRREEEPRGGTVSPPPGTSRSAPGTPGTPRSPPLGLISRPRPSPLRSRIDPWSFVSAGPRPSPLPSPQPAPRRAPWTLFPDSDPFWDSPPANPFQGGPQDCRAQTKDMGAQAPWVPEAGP
Chain of Serine/threonine-protein kinase Nek5 (Homo sapiens) (Q6P3R8 whole entry): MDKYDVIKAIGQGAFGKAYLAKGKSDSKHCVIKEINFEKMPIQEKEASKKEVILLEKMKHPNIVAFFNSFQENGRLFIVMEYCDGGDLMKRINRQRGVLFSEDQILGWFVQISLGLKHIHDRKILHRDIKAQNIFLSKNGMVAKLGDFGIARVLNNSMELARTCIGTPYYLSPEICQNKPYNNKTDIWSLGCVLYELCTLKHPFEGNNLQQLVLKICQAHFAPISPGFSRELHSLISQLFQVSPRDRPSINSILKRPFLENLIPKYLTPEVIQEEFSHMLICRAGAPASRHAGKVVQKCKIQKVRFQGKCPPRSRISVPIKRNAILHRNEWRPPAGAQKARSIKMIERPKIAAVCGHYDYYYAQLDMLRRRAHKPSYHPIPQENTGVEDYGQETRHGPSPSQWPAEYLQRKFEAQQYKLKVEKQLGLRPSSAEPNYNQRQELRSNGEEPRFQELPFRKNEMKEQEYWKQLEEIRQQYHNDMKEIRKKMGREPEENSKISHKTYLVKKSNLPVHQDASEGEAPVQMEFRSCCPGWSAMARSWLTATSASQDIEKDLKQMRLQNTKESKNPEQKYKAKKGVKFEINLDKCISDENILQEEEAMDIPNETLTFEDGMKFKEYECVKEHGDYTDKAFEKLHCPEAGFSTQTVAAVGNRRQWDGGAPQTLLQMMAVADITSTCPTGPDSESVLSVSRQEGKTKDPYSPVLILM
Chain of Mitogen-activated protein kinase 8 (Homo sapiens) (P45983 whole entry, the tested form may be a part): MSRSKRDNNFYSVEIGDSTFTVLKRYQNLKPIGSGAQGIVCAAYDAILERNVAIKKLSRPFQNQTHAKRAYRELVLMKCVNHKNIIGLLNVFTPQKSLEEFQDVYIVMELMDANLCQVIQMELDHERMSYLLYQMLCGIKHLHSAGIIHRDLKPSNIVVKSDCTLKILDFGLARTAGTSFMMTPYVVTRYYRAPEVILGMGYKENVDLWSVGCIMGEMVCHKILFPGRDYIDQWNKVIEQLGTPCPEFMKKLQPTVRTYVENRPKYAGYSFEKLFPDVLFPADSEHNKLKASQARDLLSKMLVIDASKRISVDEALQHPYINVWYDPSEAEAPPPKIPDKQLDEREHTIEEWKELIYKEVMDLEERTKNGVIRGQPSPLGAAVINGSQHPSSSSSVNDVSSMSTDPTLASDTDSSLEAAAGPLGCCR
Chain of Dual specificity mitogen-activated protein kinase kinase 5 (Homo sapiens) (Q13163 whole entry): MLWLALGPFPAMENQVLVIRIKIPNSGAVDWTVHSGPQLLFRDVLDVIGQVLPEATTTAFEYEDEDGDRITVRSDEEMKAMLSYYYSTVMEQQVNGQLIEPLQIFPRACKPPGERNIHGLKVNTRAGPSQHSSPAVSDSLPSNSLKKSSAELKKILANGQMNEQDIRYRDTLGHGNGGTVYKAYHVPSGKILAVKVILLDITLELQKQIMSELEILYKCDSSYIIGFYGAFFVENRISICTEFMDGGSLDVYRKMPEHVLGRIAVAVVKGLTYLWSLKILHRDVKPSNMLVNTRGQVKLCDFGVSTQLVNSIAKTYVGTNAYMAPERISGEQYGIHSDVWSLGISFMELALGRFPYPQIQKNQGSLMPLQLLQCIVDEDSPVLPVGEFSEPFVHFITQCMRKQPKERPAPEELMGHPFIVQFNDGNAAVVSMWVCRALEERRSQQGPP

`COc1ccc2c(O[C@@H]3C[C@H]4C(=O)N[C@]5(C(=O)O)CC5/C=C\CCCCC[C@H](NC(=O)OC5CCCC5)C(=O)N4C3)cc(-c3csc(NC(=O)C(C)C)n3)nc2c1C` (stereo not given in full) [BI 1230] was tested, and the residual activity [1] was 70%, the residual activity [2] was 87% and the residual activity [3] was 100%. For the same compound, the residual activity [4] was 74%, the residual activity [5] was 100% and the residual activity [6] was 57%. For the same compound, the residual activity [7] was 100%, the residual activity [8] was 81% and the residual activity [9] was 83%. The residual activity [10] was 88%, the residual activity [11] was 79% and the residual activity [12] was 81%. For the same compound, the residual activity [13] was 100%, the residual activity [14] was 100% and the residual activity [15] was 79%. The residual activity [16] was 87%, the residual activity [17] was 67% and the residual activity [18] was 97%. It also gave a residual activity [19] of 81%, a residual activity [20] of 100% and a residual activity [21] of 71%. The residual activity [22] was 44%, the residual activity [23] was 100% and the residual activity [24] was 76%. For the same compound, the residual activity [25] was 98%, the residual activity [26] was 83% and the residual activity [27] was 96%. The residual activity [28] was 65%, the residual activity [29] was 86% and the residual activity [30] was 95%. The residual activity [31] was 100%, the residual activity [32] was 100% and the residual activity [33] was 93%. The residual activity [34] was 98%, the residual activity [35] was 81% and the residual activity [36] was 75%. It also gave a residual activity [37] of 91%, a residual activity [38] of 98% and a residual activity [39] of 91%. For the same compound, the residual activity [40] was 100%, the residual activity [41] was 82% and the residual activity [42] was 95%. The residual activity [43] was 83%, the inhibition [44] was 32.5% and the inhibition [45] was 31.5%.

Work on `O=C(N[C@H]1CCCCC/C=C\C2C[C@@]2(C(=O)O)NC(=O)[C@@H]2C[C@@H](Oc3ccncc3)CN2C1=O)OC1CCCC1` (stereo not given in full) [BI 1675] yielded a residual activity [1] of 65%, a residual activity [2] of 100% and a residual activity [3] of 100%. It also gave a residual activity [4] of 100%, a residual activity [5] of 100% and a residual activity [6] of 66%. For the same compound, the residual activity [7] was 95%, the residual activity [8] was 83% and the residual activity [9] was 89%. It also gave a residual activity [10] of 69%, a residual activity [11] of 84% and a residual activity [12] of 85%. For the same compound, the residual activity [13] was 100%, the residual activity [14] was 93% and the residual activity [15] was 92%. It also gave a residual activity [16] of 100%, a residual activity [17] of 80% and a residual activity [18] of 72%. It also gave a residual activity [19] of 86%, a residual activity [20] of 93% and a residual activity [21] of 89%. For the same compound, the residual activity [22] was 84%, the residual activity [23] was 97% and the residual activity [24] was 100%. For the same compound, the residual activity [25] was 91%, the residual activity [26] was 82% and the residual activity [27] was 88%. For the same compound, the residual activity [28] was 100%, the residual activity [29] was 80% and the residual activity [30] was 100%. For the same compound, the residual activity [31] was 100%, the residual activity [32] was 88% and the residual activity [33] was 89%. It also gave a residual activity [34] of 100%, a residual activity [35] of 100% and a residual activity [36] of 100%. It also gave a residual activity [37] of 100%, a residual activity [38] of 100% and a residual activity [39] of 97%. It also gave a residual activity [40] of 100%, a residual activity [41] of 100% and a residual activity [42] of 100%. It also gave a residual activity [43] of 100%, an inhibition [44] of 3.22% and an inhibition [45] of 23.9%.
